Drawing on patent US8710043B2, “TRPM8 antagonists and their use in treatments” (Amgen Inc., priority 2011, dated 2014), this text covers IC50 for 32 compounds.

T1 sequence (Q7Z2W7 whole entry): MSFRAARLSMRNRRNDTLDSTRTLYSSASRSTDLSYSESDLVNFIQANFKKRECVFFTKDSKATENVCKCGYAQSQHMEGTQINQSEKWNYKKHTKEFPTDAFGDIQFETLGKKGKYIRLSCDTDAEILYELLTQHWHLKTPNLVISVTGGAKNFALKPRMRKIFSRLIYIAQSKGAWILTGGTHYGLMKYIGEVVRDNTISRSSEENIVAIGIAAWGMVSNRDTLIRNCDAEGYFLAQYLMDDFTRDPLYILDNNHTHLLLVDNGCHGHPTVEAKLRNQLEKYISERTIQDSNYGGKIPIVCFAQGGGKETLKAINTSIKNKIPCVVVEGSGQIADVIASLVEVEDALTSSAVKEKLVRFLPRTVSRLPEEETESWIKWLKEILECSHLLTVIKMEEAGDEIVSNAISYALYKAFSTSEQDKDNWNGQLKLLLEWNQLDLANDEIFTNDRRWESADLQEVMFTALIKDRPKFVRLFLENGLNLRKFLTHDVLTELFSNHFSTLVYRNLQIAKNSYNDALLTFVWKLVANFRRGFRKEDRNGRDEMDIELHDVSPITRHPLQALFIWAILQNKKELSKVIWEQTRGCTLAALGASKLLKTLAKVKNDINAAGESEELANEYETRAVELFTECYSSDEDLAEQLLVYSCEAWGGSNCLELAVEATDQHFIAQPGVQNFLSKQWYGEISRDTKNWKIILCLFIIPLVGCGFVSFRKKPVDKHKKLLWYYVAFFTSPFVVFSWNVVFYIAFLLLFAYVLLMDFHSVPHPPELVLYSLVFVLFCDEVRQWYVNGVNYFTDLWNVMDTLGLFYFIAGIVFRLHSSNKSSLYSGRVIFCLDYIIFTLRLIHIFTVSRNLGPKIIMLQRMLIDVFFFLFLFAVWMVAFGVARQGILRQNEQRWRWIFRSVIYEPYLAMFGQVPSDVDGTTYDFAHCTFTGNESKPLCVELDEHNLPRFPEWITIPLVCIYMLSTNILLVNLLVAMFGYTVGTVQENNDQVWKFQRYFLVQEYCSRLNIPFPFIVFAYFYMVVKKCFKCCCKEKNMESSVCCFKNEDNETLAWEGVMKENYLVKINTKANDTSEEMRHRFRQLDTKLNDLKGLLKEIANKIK

The experiment addresses T1, human TRPM8 (Homo sapiens, UniProt Q7Z2W7).
T1 construct: expressed in transfected cells; host or cells: Chinese hamster ovary (CHO) cells, T-REx tetracycline-inducible system, co-transfected with aequorin
Briefly: Luminescence readout assay for measuring intracellular calcium, icilin activation. The format is cell-based. Conditions: CHO cells expressing human TRPM8, aequorin luminescence, 1 μM icilin activation; read-out: hTRPM8 IC50. In short, it runs like this: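 The read-out was luminescence reporting intracellular calcium, recorded by a CCD-based luminometer. Compounds were preincubated for 2.5 min before agonist challenge with 1 μM icilin. Human TRPM8 was expressed in a stable T-REx CHO line, induced with 0.5 μg/mL tetracycline the day before.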
(In general: A change in cytosolic calcium serves as a functional read-out for many receptors and channels.)
Turning to `Cn1cc(C(=O)N[C@@H](c2ccc(F)c(F)c2)c2ncccc2F)ccc1=O` [Example 332, (S)-N-((3,4-difluorophenyl)(3-fluoropyridin-2-yl)methyl)-1-methyl-6-oxo-1,6-dihydropyridine-3-carboxamide], the half-inhibitory concentration (IC50) (in general, the concentration needed to halve the response being measured) was 268 nM.
As for `O=C(N[C@@H](c1ccc(C(F)(F)F)c(F)c1)c1ncccc1C(F)(F)F)[C@@H]1CCCO1` [Example 119, (S)-N-((S)-(3-fluoro-4-(trifluoromethyl)phenyl)(3-(trifluoromethyl)pyridin-2-yl)methyl)THF-2-carboxamide], the figure is 100 nM; as for `O=C(N[C@@H](c1ccc(OC(F)(F)F)c(F)c1)c1ncccc1Br)c1ccc2oc(=O)[nH]c2c1` [Example 384, (S)-N-((3-bromopyridin-2-yl)(3-fluoro-4-(trifluoromethoxy)phenyl)methyl)-2-oxo-2,3-dihydrobenzo[d]oxazole-5-carboxamide], 5.8 nM; as for `COc1ccc([C@H](NC(=O)c2ccc(=O)n(C)c2)c2ncccc2F)cc1F` [Example 337, (S)-N-((3-fluoro-4-methoxyphenyl)(3-fluoropyridin-2-yl)methyl)-1-methyl-6-oxo-1,6-dihydropyridine-3-carboxamide], 313 nM.
As for `COc1ncccc1C(=O)N[C@@H](c1ccc(C(F)(F)F)cc1)c1ncccc1F` [Example 47, (S)-N-((3-fluoropyridin-2-yl)(4-(trifluoromethyl)phenyl)methyl)-2-methoxynicotinamide], the figure is 20.1 nM.
The same measure for `COc1cccc(C(=O)NC(c2ccc(C(F)(F)F)cc2)c2ncccc2F)c1` (centres unmarked) [Example 214, N-((3-fluoropyridin-2-yl)(4-(trifluoromethyl)phenyl)methyl)-3-methoxybenzamide]: 121 nM; for `O=C(N[C@@H](c1ccc(C(F)(F)F)cc1)c1ncccc1F)c1ccc2cccnc2c1` (stereo in doubt) [Example 204, N-((3-fluoropyridin-2-yl)(4-(trifluoromethyl)phenyl)methyl)quinoline-7-carboxamide]: 104 nM.
As for `O=C(N[C@@H](c1ccc(OC(F)(F)F)c(F)c1)c1ncccc1F)c1ccc[nH]c1=O` [Example 416, (S)-N-((3-fluoro-4-(trifluoromethoxy)phenyl)(3-fluoropyridin-2-yl)methyl)-2-oxo-1,2-dihydropyridine-3-carboxamide], the half-maximal inhibitory concentration (IC50) is 54 nM.
As for `O=C1Cc2cc(C(=O)N[C@@H](c3ccc(OC(F)(F)F)c(F)c3)c3ncccc3F)ccc2N1` [Example 346, (S)-N-((3-fluoro-4-(trifluoromethoxy)phenyl)(3-fluoropyridin-2-yl)methyl)-2-oxoindoline-5-carboxamide], the figure is 11.1 nM; as for `Cc1ccc([C@H](NC(=O)c2ccc(=O)[nH]c2)c2ncccc2F)cc1C` [Example 380, (S)-N-((3,4-dimethylphenyl)(3-fluoropyridin-2-yl)methyl)-6-oxo-1,6-dihydropyridine-3-carboxamide], 245 nM.
As for `O=C(N[C@@H](c1ccc(C(F)(F)F)cc1)c1ncccc1C(F)(F)F)C1CCOCC1` [Example 152, (S)-N-((4-(trifluoromethyl)phenyl)(3-(trifluoromethyl)pyridin-2-yl)methyl)tetrahydro-2H-pyran-4-carboxamide], the figure is 459 nM; as for `O=C(N[C@@H](c1ccc(C(F)(F)F)cc1)c1ncccc1C(F)(F)F)c1cccc(OC(F)(F)F)c1` [Example 219, (S)-3-(trifluoromethoxy)-N-((4-(trifluoromethyl)phenyl)(3-(trifluoromethyl)pyridin-2-yl)methyl)benzamide], 137 nM.
The same measure for `O=C(N[C@@H](c1ccc(C(F)(F)F)cc1)c1ncccc1F)c1ccc(=O)n(Cc2ccccc2)c1` [Example 371, (S)-1-benzyl-N-((3-fluoropyridin-2-yl)(4-(trifluoromethyl)phenyl)methyl)-6-oxo-1,6-dihydropyridine-3-carboxamide]: 190 nM; for `Cc1cccnc1[C@@H](NC(=O)c1ccc(=O)n(C)c1)c1ccc(C(F)(F)F)cc1` [Example 83, (S)-1-methyl-N-((3-methylpyridin-2-yl)(4-(trifluoromethyl)phenyl)methyl)-6-oxo-1,6-dihydropyridine-3-carboxamide 2,2,2-trifluoroacetate]: 39.2 nM.
As for `O=C(O)c1ccc(C(=O)N[C@@H](c2ccc(C(F)(F)F)cc2)c2ncccc2C(F)(F)F)cc1` [Example 283, (S)-4-(((4-(Trifluoromethyl)phenyl)(3-(trifluoromethyl)-pyridin-2-yl)methyl)carbamoyl)benzoic Acid], the IC50 turned out to be 21.8 nM.
Consider `CC(C)(O)c1ccc(C(=O)N[C@@H](c2ccc(C(F)(F)F)cc2)c2ncccc2C(F)(F)F)cc1` [Example 121, (S)-4-(2-hydroxypropan-2-yl)-N-((4-(trifluoromethyl)phenyl)(3-(trifluoromethyl)pyridin-2-yl)methyl)benzamide], for which the concentration for half-maximal inhibition (IC50) was determined as 247 nM.
As for `O=C(N[C@@H](c1ccc(C(F)(F)F)cc1)c1ncccc1C(F)(F)F)c1ccc2c(O)ccnc2c1` [Example 106, (S)-4-hydroxy-N-((4-(trifluoromethyl)phenyl)(3-(trifluoromethyl)pyridin-2-yl)methyl)quinoline-7-carboxamide 2,2,2-trifluoroacetate], the figure is 8.9 nM.
The same measure for `CN(C)c1cccc(C(=O)N[C@@H](c2ccc(C(F)(F)F)cc2)c2ncccc2C(F)(F)F)c1` [Example 186, (S)-3-(dimethylamino)-N-((4-(trifluoromethyl)phenyl)(3-(trifluoromethyl)pyridin-2-yl)methyl)benzamide]: 49.2 nM; for `O=C(N[C@@H](c1ccc(F)cc1)c1ncccc1F)c1ccc(=O)[nH]c1` [Example 340, (S)-N-((4-fluorophenyl)(3-fluoropyridin-2-yl)methyl)-6-oxo-1,6-dihydropyridine-3-carboxamide]: 808 nM.
As for `O=C(N[C@@H](c1ccc(C(F)(F)F)cc1)c1ncccc1F)c1ccc2[nH]c(=O)ccc2c1` [Example 104, (S)-N-((3-fluoropyridin-2-yl)(4-(trifluoromethyl)phenyl)methyl)-2-oxo-1,2-dihydroquinoline-6-carboxamide], the figure is 6.2 nM; as for `N#Cc1ccc(C(=O)N[C@@H](c2ccc(C(F)(F)F)cc2)c2ncccc2F)cc1` [Example 167, (S)-4-cyano-N-((3-fluoropyridin-2-yl)(4-(trifluoromethyl)phenyl)methyl)benzamide], 21.5 nM; as for `Cc1cccnc1[C@@H](NC(=O)c1ccc2[nH]c(=O)oc2c1)c1ccc(C(F)(F)F)cc1` [Example 313, (S)-N-((3-methylpyridin-2-yl)(4-(trifluoromethyl)phenyl)methyl)-2-oxo-2,3-dihydrobenzo[d]oxazole-6-carboxamide], 25.9 nM.
Regarding `O=C(N[C@@H](c1ccc(C(F)(F)F)cc1)c1ncccc1C(F)(F)F)c1ccc2c(c1)C(=O)CC2` [Example 245, (S)-3-oxo-N-((4-(trifluoromethyl)phenyl)(3-(trifluoromethyl)pyridin-2-yl)methyl)-2,3-dihydro-1H-indene-5-carboxamide], the half-maximal inhibitory concentration (IC50) amounted to 77.4 nM.
As for `N#Cc1ccc(C(=O)N[C@@H](c2ccc(C(F)(F)F)cc2)c2ncccc2F)cc1` (stereo in doubt) [Example 200, 4-cyano-N-((3-fluoropyridin-2-yl)(4-(trifluoromethyl)phenyl)methyl)benzamide], the figure is 49.3 nM; as for `Cn1ccnc1C(=O)N[C@@H](c1ccc(OC(F)(F)F)c(F)c1)c1ncccc1F` [Example 387, (S)-N-((3-fluoro-4-(trifluoromethoxy)phenyl)(3-fluoropyridin-2-yl)methyl)-1-methyl-1H-imidazole-2-carboxamide 2,2,2-trifluoroacetate], 279 nM; as for `O=C(N[C@@H](c1ccc(Cl)cc1)c1ncccc1C(F)(F)F)c1ccc2cccnc2c1` [Example 6, (S)-N-((4-chlorophenyl)(3-(trifluoromethyl)pyridin-2-yl)methyl)quinoline-7-carboxamide], 73.9 nM.
The same measure for `N#Cc1cccc(C(=O)N[C@@H](c2ccc(C(F)(F)F)cc2)c2ncccc2F)c1` [Example 184, (S)-3-cyano-N-((3-fluoropyridin-2-yl)(4-(trifluoromethyl)phenyl)methyl)benzamide]: 52.9 nM.
Turning to `O=C(N[C@@H](c1cnc2ccc(Cl)cc2c1)c1ncccc1C(F)(F)F)c1ccc2cccnc2c1` [Example 4, (S)-N-((6-chloroquinolin-3-yl)(3-(trifluoromethyl)pyridin-2-yl)methyl)quinoline-7-carboxamide], the IC50 is 44 nM.
As for `CC1(C#Cc2cccnc2[C@@H](NC(=O)c2ccc3ncccc3c2)c2ccc(C(F)(F)F)cc2)COC1` [Example 101, (S)-N-((3-((3-methyloxetan-3-yl)ethynyl)pyridin-2-yl)(4-(trifluoromethyl)phenyl)methyl)quinoline-6-carboxamide 2,2,2-trifluoroacetate], the figure is 395 nM.
As to `O=C(N[C@@H](c1ccc(C(F)(F)F)cc1)c1ncccc1F)c1cccc(F)c1` [Example 187, (S)-3-fluoro-N-((3-fluoropyridin-2-yl)(4-(trifluoromethyl)phenyl)methyl)benzamide], the IC50 turned out to be 45.3 nM.
The same measure for `COC(=O)c1cccc(C(=O)N[C@@H](c2ccc(C(F)(F)F)cc2)c2ncccc2C(F)(F)F)c1` [Example 189, (S)-methyl 3-(((4-(trifluoromethyl)phenyl)(3-(trifluoromethyl)pyridin-2-yl)methyl)carbamoyl)benzoate]: 80.6 nM; for `Cc1ncoc1C(=O)N[C@@H](c1ccc(C(F)(F)F)cc1)c1ncccc1C(F)(F)F` [Example 190, (S)-4-methyl-N-((4-(trifluoromethyl)phenyl)(3-(trifluoromethyl)pyridin-2-yl)methyl)oxazole-5-carboxamide]: 33.1 nM.
